Laboratory results: article PMC7765321, “Novel Isoniazid-Carborane Hybrids Active In Vitro against Mycobacterium tuberculosis” (Pharmaceuticals, 2020)
Converted amounts (≈) assume the structure as drawn.

What was measured:
[1] = system: Mtb H37Rv strain; assay: microbe, parasite or virus in culture; type: cell-based; details: for MIC50: concentration exhibiting 50% inhibition of mycobacterial growth; for MIC50 / MIC99: wild-type Mtb H37Rv, 96 h; for MIC99: concentration exhibiting 99% inhibition of mycobacterial growth
[2] = system: HaCaT cells
[3] = for permeation compared to INH (4): PAMPA; for PAMPA log Pe: PBS pH 7.4, 18 h, RT, Pe in cm/s
[4] = Partition (P) and distribution (D) coefficient, shake-flask octan-1-ol/water or PBS
[5] = system: Mtb; design: method as in PMID 28390957; details: against Mtb; cited from earlier work
[6] = in vitro; details: PAMPA, pH 7.4
[7] = Determination of the CC50 value (MTT assay); details: human, HaCaT cells (immortalized keratinocytes)
[8] = system: HaCaT cells; remark: listed apart in the source
[9] = system: HaCaT cells; details: 24 h at MIC50 and MIC99 values for the Mtb strain
[10] = octan-1-ol/water, shake-flask, RT

| Compound | MIC50 [1] [µM] | MIC99 [1] [µM] | CC50 [2] [µM] | permeation compared to INH (4) [3] | PAMPA log Pe [3] | log P [4, 10] | other results |
| --- | --- | --- | --- | --- | --- | --- | --- |
| N′-((1,2-dicarba-closo-dodecaboran-1-yl)ethyl)isonicotinohydrazide [Compound 23] | 1.60 | 4.90 | 86.5 ± 4.59 | two orders of magnitude higher | −4.16 ± 0.05 | 0.64 ± 0.09 |  |
| N′-((1,12-dicarba-closo-dodecaboran-1-yl)ethyl)isonicotinohydrazide [Compound 25] | 0.32 | 6.50 |  | two orders of magnitude higher | −4.37 ± 0.04 | 1.15 ± 0.14 |  |
| N′-((1,7-dicarba-closo-dodecaboran-1-yl)ethyl)isonicotinohydrazide [Compound 24] | 0.81 | 3.25 | 105 ± 6.13 | two orders of magnitude higher | −4.85 ± 0.06 | 0.66 ± 0.08 |  |
| NNC(=O)c1ccncc1 [4 (INH), pyridine-4-carbohydrazide, reference compound] |  |  |  |  |  |  | MIC50 ([1]; Mycobacterium tuberculosis): 0.073 µM (≈ 0.01 µg/mL); MIC99 ([1]; Mycobacterium tuberculosis): 0.36 µM (≈ 0.0494 µg/mL); MIC [5]: 0.20 µg/mL (≈ 1.46 µM); Papp at 18 h [6]: 0.617 ×10⁻⁶ cm/s; CC50 [7]: 725.8 ± 2.36 µM; logP at 0.5 h ([4]; octan-1-ol/water): -1 ± 0.09 |
| N′-((7,8-dicarba-nido-undecaboranyl)methylidene)isonicotinohydrazide [Compound 16] | 0.16 | 0.33 | 249.4 ± 0.56 | one order of magnitude higher | −5.05 ± 0.30 |  | log D7.4 ([4]; octan-1-ol/PBS, shake-flask, RT): 0.67 ± 0.04 |
| N′-((1,2-dicarba-closo-dodecaboran-1-yl)propanoyl)isonicotinohydrazide [Compound 8] | 44.70 | 100 | 86.6 ± 3.63 | two orders of magnitude higher | −4.98 ± 0.12 | 0.67 ± 0.07 | viable cells (MTT) ([8]; 24 h at concentration consistent with MIC99 for wild-type Mtb): 50%; apoptotic/necrotic cells [9]: 16.45% |
| 1,12-dicarba-closo-dodecaborane-1-carboxylic acid hydrazide [Compound 3] |  |  |  |  |  |  | growth inhibition of Mtb ([1]; at 75 µg/mL (0.37 mM)): not considerably inhibited |
| N′-((1,12-dicarba-closo-dodecaboran-1-yl)propanoyl)isonicotinohydrazide [Compound 10] | 29.80 | 74.50 | 161 ± 3.89 | two orders of magnitude higher | −4.65 ± 0.09 | 0.99 ± 0.07 |  |
| N′-((1,7-dicarba-closo-dodecaboran-1-yl)propanoyl)isonicotinohydrazide [Compound 9] | 22.40 | 74.50 | 290.6 ± 1.45 | one order of magnitude higher | −5.09 ± 0.07 | 1.11 ± 0.11 | cytotoxicity / cell viability (MTT) ([8]; 24 h at MIC50 and MIC99 values for the ΔkatG strain): did not cause severe cytotoxicity |
| N′-((1,7-dicarba-closo-dodecaboran-1-yl)methylidene)isonicotinohydrazide [Compound 14] | 0.86 | 3.40 | 131 ± 3.46 | two orders of magnitude higher | −4.06 ± 0.09 | 2.03 ± 0.09 |  |
| N′-((1,7-dicarba-closo-dodecaboran-1-yl)ethylidene)isonicotinohydrazide [Compound 21] | 0.16 | 0.82 | 78.23 ± 0.71 | two orders of magnitude higher | −4.40 ± 0.10 | 1.66 ± 0.18 |  |
| N′-((1,12-dicarba-closo-dodecaboran-1-yl)ethylidene)isonicotinohydrazide [Compound 22] | 0.16 | 1.60 | 80.2 ± 3.81 | two orders of magnitude higher | −4.13 ± 0.07 | 1.30 ± 0.07 |  |
| N′-((1,12-dicarba-closo-dodecaboran-1-yl)methylidene)isonicotinohydrazide [Compound 15] | 10.30 | 17.20 | 305 ± 6.11 | three orders of magnitude higher | −3.90 ± 0.17 | 2.28 ± 0.20 |  |
| N′-((1,2-dicarba-closo-dodecaboran-1-yl)ethylidene)isonicotinohydrazide [Compound 20] | 0.082 | 1.60 | 81.5 ± 7.23 | one order of magnitude higher | −5.05 ± 0.09 | 1.26 ± 0.22 |  |
